# Test results as given in paper PMC8231342, “Potency of bisresorcinol from Heliciopsis terminalis on skin aging: in vitro bioactivities and molecular interactions” (PeerJ, 2021).
# “And” between values parts separate entries of the source, which are not always exact repeats. Identical values can stand only once. Like-named read-outs stand apart in the source and are kept apart here.
# Legend:
# Type in all cases: biochemical
# [1] = system: Collagenase from Clostridium histolyticum (EC.3.4.24.3); assay: Collagenase inhibition assay (fluorogenic peptide substrate)
# Description: The recent anti-collagenase assay was modified from that previously described by [Widyowati et al. (2016)]. In brief, 50 mmol L^−1 tricine buffer pH 7.5 supplemented with 400 mmol L^−1 NaCl and 10 mmol L^−1 CaCl2 was used as the buffering diluent. Collagenase from Clostridium histolyticum (EC.3.4.24.3) was dissolved in the buffer to a concentration of 1 mg L^−1. The enzyme substrate, MOCAc-PRO-Leu-Gly-Leu-A2pr (Dnp)-Ala-Arg-NH2, was prior dissolved in DMSO and subsequently diluted in the buffer to a concentration of 1 mmol L^−1. A sample dissolved in DMSO was diluted to different concentrations by using the buffer. A 2-µl sample solution was incubated with 100 µl enzyme solution at 37 °C for 10 min. Then, a 50-µl substrate was added and thoroughly mixed. Fluorescence emission (F) at 405 nm was immediately recorded and continually monitored for 30 min using a wavelength of 320 nm for excitation. Caffeic acid was used as a position control (Fig. 1). Negative control was performed with water. The percent inhibition (%) was calculated from the equation below:
# %Inhibition={1–(Fsam,30–Fsam,0)÷(Fcont,30–Fcont,0)}×100.
# [2] = molecular target: porcine pancreatic elastase (EC.3.4.21.36) (Sus scrofa, UniProt P00772); assay: Elastase inhibition assay (SANA substrate)
# Chain of porcine pancreatic elastase (EC.3.4.21.36) (P00772 27-266): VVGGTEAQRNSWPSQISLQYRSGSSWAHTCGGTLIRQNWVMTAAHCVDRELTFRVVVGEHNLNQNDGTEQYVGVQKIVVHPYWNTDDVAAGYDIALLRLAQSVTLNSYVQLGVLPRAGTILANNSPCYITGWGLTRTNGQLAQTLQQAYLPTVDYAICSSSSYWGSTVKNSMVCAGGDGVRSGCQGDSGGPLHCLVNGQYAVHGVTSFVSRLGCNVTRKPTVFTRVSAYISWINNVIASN
# Description: The assay according to [Abhijit & Manjushree (2010)] was applied with some modifications. Briefly, the buffer system was 0.2 mM Tris-HCl buffer (pH 8.0). A solution of 1 µg mL^−1 porcine pancreatic elastase (EC.3.4.21.36) was prepared in sterile water. The enzyme substrate, N-Succinyl-Ala-Ala-Ala-p-nitroanilide (SANA), was dissolved in the buffer to a concentration of 80 mmol L^−1. A sample dissolved in DMSO was diluted to various concentrations by using the buffer. A 100-µl sample solution was mixed with 50 µl enzyme solution and incubated for 15 min. After that 50 µl of the enzyme substrate solution was added and thoroughly mixed. The OD410 was measured immediately (0 min) and after incubation overnight (o/n) at 37 °C by using a microplate reader. Ursolic acid was used as a positive control (Fig. 1), and water was used as a negative control. The percentage inhibition (%) was calculated by the following equation:
# %Inhibition={1–[(Asam,o/n–Asam,0)÷(Acont,o/n–Acont,0)]}×100.
# [3] = molecular target: Mushroom tyrosinase (EC.1.14.18.1) (Agaricus bisporus, UniProt C7FF04); assay: Tyrosinase inhibition assay (L-tyrosine substrate); details: for inhibition at 10 µg/mL: conc 10 ug/ml
# Chain of Mushroom tyrosinase (EC.1.14.18.1) (C7FF04 2-392): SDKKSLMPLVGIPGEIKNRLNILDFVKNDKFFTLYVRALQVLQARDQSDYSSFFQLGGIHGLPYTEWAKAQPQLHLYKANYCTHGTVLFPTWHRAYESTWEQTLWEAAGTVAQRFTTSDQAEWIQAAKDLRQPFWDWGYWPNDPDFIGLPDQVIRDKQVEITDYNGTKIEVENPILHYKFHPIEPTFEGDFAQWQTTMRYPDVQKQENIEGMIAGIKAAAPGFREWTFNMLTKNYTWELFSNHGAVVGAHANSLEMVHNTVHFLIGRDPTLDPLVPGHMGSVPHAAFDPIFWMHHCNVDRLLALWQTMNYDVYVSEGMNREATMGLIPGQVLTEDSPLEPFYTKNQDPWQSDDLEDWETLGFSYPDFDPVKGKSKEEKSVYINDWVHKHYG
# Description: In brief, the assay was carried out in 0.05 mol L^−1 phosphate buffer pH 6.8. Mushroom tyrosinase (EC.1.14.18.1) was dissolved in the buffer to a concentration of 100 units mL^−1. L-tyrosine, an enzyme substrate, was prepared to a concentration of 0.25 mg mL^−1 in the buffer. […] Into a well of 96-well plates, 10 µl sample and 40 µl L-tyrosine solution were mixed and incubated for 10 min at room temperature. After that 50 µl enzyme solution was inoculated and mixed thoroughly. The reaction was stopped afterward by incubation on ice for 1 min. […] The percentage inhibition (%) was calculated by the equation as follows:
# %Inhibition={1–(Asam,10–Asam,0)÷(Acont,10–Acont,0)}×100.
# [4] = individual replicates, read-out: ic50 collagenase, N1-N3
# [5] = mean ± SEM, triplicate, read-out: IC50 collagenase inhibition
# [6] = individual replicates, read-out: % inhibition elastase, replicates 1-3
# [7] = read-out: % inhibition elastase, ave
# [8] = individual replicates, read-out: ic50 elastase, N1-N3 (converted)
# [9] = mean ± SEM, triplicate, read-out: IC50 elastase inhibition
# [10] = individual replicates, read-out: % inhibition tyrosinase, replicates 1-3
# [11] = read-out: % inhibition tyrosinase, ave
structure (smiles),measurement,setting,value
"Oc1cc(O)cc(CCCCCCCC=CCCCCCCCc2cc(O)cc(O)c2)c1 [Bisresorcinol, (8′Z)-3,5-dihydroxy-1-[16′-(3″,5″-dihydroxyphenyl)-8′-hexadecen-1′-yl]benzene]","% inhibition collagenase, ave",[1]; 56 uM,0.0%
same,"% inhibition collagenase, ave",[1]; 113 uM,33.0%
same,"% inhibition collagenase, ave",[1]; 226 uM,81.31% and 81.3%
same,"ic50 collagenase, ave",[1]; average of N1-N3,69.5 µg/mL
same,"% inhibition collagenase, ave",[1]; conc 25 ug/ml,0.00%
same,"% inhibition collagenase, N1-N3","[1]; conc 25 ug/ml, individual replicates",0.00% and 0% (2×)
same,"% inhibition collagenase, ave",[1]; conc 50 ug/ml,32.97%
same,"% inhibition collagenase, N1-N3","[1]; conc 50 ug/ml, individual replicates",38.51% and 27.91% and 32.48%
same,"% inhibition collagenase, ave",[1]; conc 100 ug/ml,81.31%
same,"% inhibition collagenase, N1-N3","[1]; conc 100 ug/ml, individual replicates",82.28% and 81.54% and 80.12%
same,"ic50 collagenase, N1-N3",[1]; individual replicates,70.18 µg/mL and 67.47 µg/mL and 70.79 µg/mL
same,IC50,[1]; [4],158 µM and 152 µM and 160 µM
same,IC50,[1]; [5],157 ± 2.3 µM
same,inhibition at 23 µM,"[2]; 23 uM, read-out: % inhibition elastase, ave",20.8%
same,inhibition at 34 µM,[2]; [6],46.5%
same,inhibition at 34 µM,[2]; [7],34.7%
same,inhibition at 45 µM,[2]; [6],99.6%
same,inhibition at 45 µM,[2]; [7],99.7%
same,inhibition at 50 µM,"[2]; at 50 µmol L^−1, read-out: maximum inhibition of elastase",100%
same,IC50,"[2]; average of N1-N3, read-out: ic50 elastase, ave (converted)",33.4 µM
same,"% inhibition elastase, N1-N3","[2]; conc 10 ug/ml, individual replicates",30.14% and 20.28% and 11.87%
same,inhibition at 10 µg/mL,"[2]; conc 10 ug/ml, read-out: % inhibition elastase, ave",20.8%
same,"% inhibition elastase, N1-N3","[2]; conc 15 ug/ml, individual replicates",30.89% and 26.77%
same,inhibition at 15 µg/mL,"[2]; conc 15 ug/ml, individual replicates, read-out: % inhibition elastase, N1-N3",46.5%
same,inhibition at 15 µg/mL,"[2]; conc 15 ug/ml, read-out: % inhibition elastase, ave",34.7%
same,"% inhibition elastase, N1-N3","[2]; conc 20 ug/ml, individual replicates",99.58% and 99.76%
same,inhibition at 20 µg/mL,"[2]; conc 20 ug/ml, individual replicates, read-out: % inhibition elastase, N1-N3",99.6%
same,inhibition at 20 µg/mL,"[2]; conc 20 ug/ml, read-out: % inhibition elastase, ave",99.7%
same,IC50,[2]; [8],35 µM and 31.2 µM and 34 µM and 34.8 µM and 31 µM and 33.8 µM
same,IC50,[2]; [9],33.2 ± 1.1 µM
same,inhibition at 10 µM,[3]; [10],52.4%
same,inhibition at 10 µM,[3]; [11],44.4%
same,inhibition at 28 µM,[3]; [10],81.8%
same,inhibition at 28 µM,[3]; [11],78.5%
same,inhibition at 30 µM,"[3]; 30 uM, individual replicates, read-out: % inhibition tyrosinase, replicates 1-3",81.8%
same,inhibition at 30 µM,"[3]; 30 uM, read-out: % inhibition tyrosinase, ave",78.5%
same,inhibition at 34 µM,[3]; [10],86.3%
same,inhibition at 34 µM,[3]; [11],84.3%
same,inhibition at 40 µM,"[3]; 40 uM, individual replicates, read-out: % inhibition tyrosinase, replicates 1-3",119%
same,inhibition at 40 µM,"[3]; 40 uM, read-out: % inhibition tyrosinase, ave",100%
same,inhibition at 50 µM,"[3]; 50 uM, individual replicates, read-out: % inhibition tyrosinase, replicates 1-3",138%
same,inhibition at 50 µM,"[3]; 50 uM, read-out: % inhibition tyrosinase, ave",100%
same,inhibition at 50 µM,"[3]; at 50 µmol L^−1, read-out: tyrosinase inhibition",100%
same,inhibition at 10 µg/mL,"[3]; individual replicates, read-out: % inhibition tyrosinase, N1-N3",52.4%
same,inhibition at 10 µg/mL,[3]; [11],44.4%
same,inhibition at 12.5 µg/mL,"[3]; conc 12.5 ug/ml, individual replicates, read-out: % inhibition tyrosinase, N1-N3",81.8%
same,inhibition at 12.5 µg/mL,"[3]; conc 12.5 ug/ml, read-out: % inhibition tyrosinase, ave",78.5%
same,inhibition at 15 µg/mL,"[3]; conc 15 ug/ml, individual replicates, read-out: % inhibition tyrosinase, N1-N3",86.3%
same,inhibition at 15 µg/mL,"[3]; conc 15 ug/ml, read-out: % inhibition tyrosinase, ave",84.2%
"OC[C@H]1O[C@@H](Oc2ccc(O)cc2)[C@H](O)[C@@H](O)[C@@H]1O [β-Arbutin, β-arbutin, reference compound]",inhibition at 12.5 µg/mL,"[3]; read-out: % inhibition tyrosinase, N1-N3, conc 12.5 ug/ml, individual replicates",31.2%
same,inhibition at 15 µg/mL,"[3]; read-out: % inhibition tyrosinase, N1-N3, conc 15 ug/ml, individual replicates",36.9%
same,inhibition at 25 µg/mL,"[3]; read-out: % inhibition tyrosinase, N1-N3, conc 25 ug/ml, individual replicates",59.7%
same,inhibition at 30 µM,"[3]; read-out: % inhibition tyrosinase, ave, 30 uM",18.4%
same,inhibition at 40 µM,"[3]; read-out: % inhibition tyrosinase, ave, 40 uM",24.9%
same,inhibition at 46 µM,"[3]; read-out: % inhibition tyrosinase, ave, 46 uM",28.8%
same,inhibition at 50 µM,"[3]; read-out: % inhibition tyrosinase, ave, 50 uM",34.4%
same,inhibition at 92 µM,"[3]; read-out: % inhibition tyrosinase, ave, 92 uM",58.8%
same,inhibition at 12.5 µg/mL,"[3]; read-out: % inhibition tyrosinase, ave, conc 12.5 ug/ml",28.8%
same,inhibition at 15 µg/mL,"[3]; read-out: % inhibition tyrosinase, ave, conc 15 ug/ml",34.8%
same,inhibition at 25 µg/mL,"[3]; read-out: % inhibition tyrosinase, ave, conc 25 ug/ml",58.8%
same,inhibition at 30 µM,"[3]; read-out: % inhibition tyrosinase, replicates 1-3, 30 uM, individual replicates",18.7%
same,inhibition at 40 µM,"[3]; read-out: % inhibition tyrosinase, replicates 1-3, 40 uM, individual replicates",25.7%
same,inhibition at 46 µM,"[3]; read-out: % inhibition tyrosinase, replicates 1-3, 46 uM, individual replicates",31.2%
same,inhibition at 50 µM,"[3]; read-out: % inhibition tyrosinase, replicates 1-3, 50 uM, individual replicates",30.5%
same,inhibition at 92 µM,"[3]; read-out: % inhibition tyrosinase, replicates 1-3, 92 uM, individual replicates",59.7%
"O=C(O)/C=C/c1ccc(O)c(O)c1 [Caffeic acid, caffeic acid, reference compound]","% inhibition collagenase, ave",[1]; 140 uM,30.4%
same,"% inhibition collagenase, ave",[1]; 280 uM,51.1%
same,"% inhibition collagenase, ave",[1]; 560 uM,72.8%
same,"% inhibition collagenase, ave",[1]; conc 280 uM (14 mM is the stock sample solution),30.37%
same,"% inhibition collagenase, N1-N3","[1]; conc 14 mM, individual replicates",37.46% and 22.54% and 31.12%
same,"% inhibition collagenase, ave",[1]; conc 28 mM,51.14%
same,"% inhibition collagenase, N1-N3","[1]; conc 28 mM, individual replicates",50.5% and 50.77% and 52.14%
same,"% inhibition collagenase, ave",[1]; conc 56 mM,72.77%
same,"% inhibition collagenase, N1-N3","[1]; conc 56 mM, individual replicates",71.84% and 74.23% and 72.24%
same,IC50,[1]; [4],307 µM and 286 µM and 334 µM
same,IC50,[1]; [5],309 ± 13.7 µM
"C[C@H]1[C@H](C)CC[C@]2(C(=O)O)CC[C@]3(C)C(=CC[C@@H]4[C@@]5(C)CC[C@H](O)C(C)(C)[C@@H]5CC[C@]43C)[C@H]12 [Ursolic acid, ursolic acid, reference compound]","% inhibition elastase, replicates 1-3","[2]; 10 uM, individual replicates",25.34% and 30.65%
same,inhibition at 10 µM,"[2]; 10 uM, individual replicates, read-out: % inhibition elastase, replicates 1-3",26.2%
same,inhibition at 10 µM,"[2]; 10 uM, read-out: % inhibition elastase, ave",27.4%
same,"% inhibition elastase, replicates 1-3","[2]; 30 uM, individual replicates",46.86% and 46.62%
same,inhibition at 30 µM,"[2]; 30 uM, individual replicates, read-out: % inhibition elastase, replicates 1-3",48.1%
same,inhibition at 30 µM,"[2]; 30 uM, read-out: % inhibition elastase, ave",47.2%
same,"% inhibition elastase, replicates 1-3","[2]; 35 uM, individual replicates",50.36% and 49.93%
same,inhibition at 35 µM,"[2]; 35 uM, individual replicates, read-out: % inhibition elastase, replicates 1-3",51.1%
same,inhibition at 35 µM,"[2]; 35 uM, read-out: % inhibition elastase, ave",50.5%
same,"% inhibition elastase, replicates 1-3","[2]; 40 uM, individual replicates",53.85% and 54.07%
same,inhibition at 40 µM,"[2]; 40 uM, individual replicates, read-out: % inhibition elastase, replicates 1-3",53.2%
same,inhibition at 40 µM,"[2]; 40 uM, read-out: % inhibition elastase, ave",53.7%
same,"% inhibition elastase, ave",[2]; 50 uM,72.36%
same,"% inhibition elastase, replicates 1-3","[2]; 50 uM, individual replicates",74.42% and 69.89%
same,inhibition at 50 µM,"[2]; 50 uM, individual replicates, read-out: % inhibition elastase, replicates 1-3",72.8%
same,inhibition at 50 µM,"[2]; 50 uM, read-out: % inhibition elastase, ave",72.4%
same,"% inhibition elastase, ave",[2]; 100 uM,87.51%
same,"% inhibition elastase, replicates 1-3","[2]; 100 uM, individual replicates",89.73% and 85.61%
same,inhibition at 100 µM,"[2]; 100 uM, individual replicates, read-out: % inhibition elastase, replicates 1-3",87.2%
same,inhibition at 100 µM,"[2]; 100 uM, read-out: % inhibition elastase, ave",87.5%
same,inhibition at 100 µM,"[2]; at 100 µmol L^−1, read-out: elastase inhibition",80%
same,IC50,[2]; [8],33.2 µM and 35.1 µM and 34.5 µM
same,IC50,[2]; [9],34.3 ± 0.6 µM
